What is called IC50 is the midpoint of a concentration-inhibition curve. Usually inhibition in vivo stands for the percentage by which the read-out fell short of the control.

Results on ten molecules are retold here after ChEMBL document CHEMBL3813639, “The Halicylindramides, Farnesoid X Receptor Antagonizing Depsipeptides from a Petrosia sp. Marine Sponge Collected in Korea” (J Nat Prod, 2016).

Experiment [1] relates to Human immunodeficiency virus 1. Put plainly: Antiviral activity against HIV1 RF assessed as inhibition of viral infection in human T-lymphoblastoid cells. It counts as functional, organism-based. The conditions noted are these: Human immunodeficiency virus 1, RF.
For experiment [2], the system named is HepG2. Put plainly: cells. The conditions noted are these: Homo sapiens, HepG2, 24 h.
Description: Cytotoxicity against human HepG2 cells after 24 hrs by MTT assay
The target of experiment [3] is T1, Bile acid receptor (Homo sapiens, UniProt Q96RI1).
T1 sequence (Q96RI1 whole entry): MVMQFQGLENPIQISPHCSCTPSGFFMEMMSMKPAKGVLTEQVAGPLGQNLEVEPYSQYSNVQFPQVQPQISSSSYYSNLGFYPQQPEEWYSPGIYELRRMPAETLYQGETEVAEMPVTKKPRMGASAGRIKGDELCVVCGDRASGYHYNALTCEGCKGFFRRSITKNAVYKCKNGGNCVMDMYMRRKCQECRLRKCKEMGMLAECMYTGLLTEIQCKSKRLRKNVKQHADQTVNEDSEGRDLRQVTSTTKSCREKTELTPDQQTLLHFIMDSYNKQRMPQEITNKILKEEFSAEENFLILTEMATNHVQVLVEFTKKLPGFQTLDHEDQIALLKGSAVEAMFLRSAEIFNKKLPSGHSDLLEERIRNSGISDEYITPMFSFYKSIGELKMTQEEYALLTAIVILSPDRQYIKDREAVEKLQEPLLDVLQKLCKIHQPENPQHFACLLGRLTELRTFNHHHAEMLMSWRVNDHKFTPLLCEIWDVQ
Put plainly: Antagonist activity at human FXR expressed in CV-1 cells assessed as inhibition of CDCA-induced receptor transactivation after 24 hrs by luciferase reporter gene assay. It counts as cell-based.

Experiment [4] relates to Mus musculus. Put plainly: Antiinflammatory activity in Swiss mouse assessed as inhibition of carrageenan-induced paw edema at 0.3 mg/kg, ip by hydroplethismometer. It counts as functional. (In general: Carrageenan injected into the paw causes an acute inflammation.)
Experiment [5] deals with T2, Bile acid receptor (Homo sapiens) (UniProt Q96RI1).
T2 sequence (whole entry): T1 sequence (Q96RI1 whole entry)
Put plainly: Antagonist activity at human FXR expressed in CV-1 cells assessed as inhibition of CDCA-induced receptor transactivation upto 100 uM after 24 hrs by luciferase reporter gene assay. It counts as cell-based. (Reporter assays use an easily measured gene product as a stand-in for the process of interest.)

Experiment [6] concerns Human immunodeficiency virus 1. Put plainly: Antiviral activity against HIV1 3B infected in human PBMC cells assessed as reduction in reverse transcriptase activity after 5 days by XTT assay. It counts as functional, organism-based. The conditions noted are these: Human immunodeficiency virus 1, 3B, 120 h.
The subject of experiment [7] is MCF7. Put plainly: Antiproliferative activity against human MCF7 cells after 20 hrs by microculture tetrazolium assay. It counts as functional. The conditions noted are these: MCF7, 20 h, read-out: ED50 (the source's name).

Calls of active or inactive are those of the source. The rule behind the calls is not given here.

As for `CCC(C)/C=C(C)/C=C\C(O)C(C)(O)C(=O)NCC(=O)N[C@@H](C(=O)N[C@H](C(=O)N[C@H](C(=O)N[C@H]1C(=O)N[C@H](COC)C(=O)NCC(=O)N[C@@H](C)CN(C)[C@H]([C@@H](C)O)CNC(C(OC)c2ccc(O)cc2)C(=O)N2CCCC[C@H]2C(=O)O[C@@H]1C(C)C)[C@@H](C)[C@@H](C)C(N)=O)[C@H](C)N)[C@@H](C)O` (stereo not given in full), the EC50 in experiment [1] was determined as 0.0026 µM.
As to `CC(C)[C@H](NC(=O)[C@H](NC(=O)[C@@H]1CCCN1C(=O)[C@H](Cc1ccc(Br)cc1)NC(=O)[C@@H](C)NC=O)C(C)C)C(=O)N[C@H](Cc1c[nH]c2ccccc12)C(=O)N[C@@H](CCCNC(=N)N)C(=O)N[C@H](CS(=O)(=O)O)C(=O)N[C@@H]1C(=O)N(C)[C@@H](CCC(N)=O)C(=O)N[C@H](Cc2ccccc2)C(=O)N[C@@H]([C@@H](C)O)C(=O)N[C@@H](CC(N)=O)C(=O)N(C)CC(=O)O[C@@H]1C`, the 50% inhibitory concentration (IC50) in experiment [2] was 20 µM; in experiment [3], 0.5 µM.
Consider `CC(C)[C@@H](NC(=O)[C@@H]1CCCN1C(=O)[C@H](Cc1ccc(Br)cc1)NC(=O)[C@@H](C)NC=O)C(=O)N[C@H](C(=O)N[C@H](Cc1c[nH]c2ccccc12)C(=O)N[C@@H](CCCNC(=N)N)C(=O)N[C@H](CS(=O)(=O)O)C(=O)N[C@@H]1C(=O)N(C)[C@@H](CCC(N)=O)C(=O)N[C@H](Cc2ccccc2)C(=O)N[C@@H]([C@@H](C)O)C(=O)N[C@@H](CC(N)=O)C(=O)N(C)CC(=O)O[C@@H]1C)C(C)(C)C`, for which the concentration for half-maximal inhibition (IC50) was found to be 100 µM in experiment [2] and 5 µM in experiment [3].
Turning to `COc1cccc2c1C(=O)c1c(O)c3c(c(O)c1C2=O)C[C@@](O)(C(=O)CO)C[C@@H]3O[C@H]1C[C@H](N)[C@H](O)[C@H](C)O1` [DOXORUBICIN], in experiment [2], the IC50 is 2.1 µM.
Consider `CC(C)[C@@H](NC(=O)[C@H]1CCCN1C(=O)[C@H](Cc1ccccc1)NC(=O)[C@@H](C)NC=O)C(=O)N[C@H](C(=O)N[C@H](Cc1c[nH]c2ccccc12)C(=O)N[C@@H](CCCNC(=N)N)C(=O)N[C@H](CS(=O)(=O)O)C(=O)N[C@H]1C(=O)N(C)[C@H](CCC(N)=O)C(=O)N[C@@H](Cc2ccccc2)C(=O)N[C@H]([C@H](C)O)C(=O)N[C@H](CC(N)=O)C(=O)N(C)CC(=O)O[C@@H]1C)C(C)(C)C`, for which the half-inhibitory concentration (IC50) in experiment [2] turned out to be 100 µM; in experiment [3], 6 µM.
Regarding `CCC[C@@H](CC[C@@H](C)[C@@H]1OC(=O)[C@H](C)NC(=O)[C@H]([C@@H](C)CCO)N(C)C(=O)[C@]2(C)CSC(=N2)[C@H](C)NC(=O)C1(C)C)OC`, the inhibition in vivo at 0.3 mg/kg in experiment [4] is 60%.
`CC(C)[C@@H](NC(=O)[C@H]1CCCN1C(=O)[C@H](Cc1ccc(Br)cc1)NC(=O)[C@@H](C)NC=O)C(=O)N[C@H](C(=O)N[C@H](C[C@]1(O)C(=O)Nc2ccccc21)C(=O)N[C@@H](CCCNC(=N)N)C(=O)N[C@H](CS(=O)(=O)O)C(=O)N[C@H]1C(=O)N(C)[C@H](CCC(N)=O)C(=O)N[C@@H](Cc2ccccc2)C(=O)N[C@H]([C@H](C)O)C(=O)N[C@H](CC(N)=O)C(=O)N(C)CC(=O)O[C@@H]1C)C(C)(C)C` had an IC50 in experiment [2] of 100 µM. In addition, the inhibition entry in experiment [5] was “inactive”.
Consider `CC[C@@H](C)C[C@@H](C)[C@@H](O)[C@@H](C)C(=O)N[C@H](CCCN)C(=O)N[C@@H](CCC(=O)O)[C@@H](O)[C@@H](O)C(=O)N[C@H](C(=O)N[C@H]1C(=O)N[C@H](CO)C(=O)N[C@H](CCCN)C(=O)N[C@@H](CC(C)C)C(=O)N(C)[C@@H](CCC(N)=O)C(=O)N[C@@H]([C@@H](C)OC)C(=O)N[C@H](CC(=O)O)C(=O)N2CCCC[C@H]2C(=O)O[C@@H]1[C@H](C)C(C)C)[C@@H](C)[C@@H](C)C(N)=O`, for which the IC50 in experiment [6] turned out to be 0.075 µM.
As to `CN[C@H](C(=O)N[C@H](C(=O)N(C)[C@H](/C=C(\C)C(=O)O)C(C)C)C(C)(C)C)C(C)(C)c1cn(C)c2ccccc12` [HEMIASTERLIN], the EC50 in experiment [7] worked out at 0.0005 µM.
As to `CC(C)[C@@H](NC(=O)[C@H]1CCCN1C(=O)[C@H](Cc1ccc(Br)cc1)NC(=O)[C@@H](C)NC=O)C(=O)N[C@H](C(=O)N[C@H](C[C@@]1(O)C(=O)Nc2ccccc21)C(=O)N[C@@H](CCCNC(=N)N)C(=O)N[C@H](CS(=O)(=O)O)C(=O)N[C@H]1C(=O)N(C)[C@H](CCC(N)=O)C(=O)N[C@@H](Cc2ccccc2)C(=O)N[C@H]([C@H](C)O)C(=O)N[C@H](CC(N)=O)C(=O)N(C)CC(=O)O[C@@H]1C)C(C)(C)C`, the half-maximal inhibitory concentration (IC50) in experiment [2] came to 100 µM. The inhibition entry in experiment [5] is “inactive”.
